Key:
[1] = Solubility in DMSO; type: physicochemical; conditions: for solubility: 20 °C, organic solvent or mixture; for solubility (in words): relative to KRN7000 or fully saturated compounds
Protocol: As with most glycolipids, solubility issues are central to handling the compounds. Compounds are usually solubilized in DMSO, and then diluted to working concentrations in aqueous solutions. […] In suitable embodiments, the compounds of the invention are at least about 10 mg/mL in DMSO under ambient conditions (approximately 20° C.). In more suitable embodiments, the compounds of the invention are at least about 20 mg/mL in DMSO at ambient temperature. In further suitable embodiments, the compounds of the invention are at least 80%, at least two-fold, or at least 4-fold relative to the solubility of KRN7000 in DMSO at ambient temperature.

[2] = tested on: NKT cells (B6 mouse splenocytes); test: Cytokine release in vitro from mouse splenocytes (IL-4 and IFNγ ELISA); type: cell-based; conditions: for concentration at which cytokine responses plateau: 5×10^5 B6 splenocytes, IL-4 and IFNγ ELISA, FIG. 6
Protocol: To determine if PBS-57 stimulated cytokine release by NKT cells in vitro, 5×10^5 mouse splenocytes isolated from B6 mice were incubated in separate wells with 10^5, 10^4, 10^3, 100, 10 and 1 pg/mL of PBS-57 or KRN7000 in RPMI 1640 media supplemented with 10% FBS, 50 μM 2-mercaptoethanol, 2 mM glutamine and antibiotics. After 48 hours, IL-4 and IFNγ levels were measured by ELISA (BD Pharmingen).

[3] = tested on: Vα14i NKT cells; test: Staining of Vα14i NKT cells with glycolipid-loaded mouse CD1d tetramers (flow cytometry); type: cell-based; conditions: summary statement, compared with KRN7000
Protocol: An typical means to isolate and quantify CD1 responsive NKT cells is through flow cytometry using fluorophore tagged CD1d tetramers loaded with sphingoglycolipids. To test for the ability of PBS-57 to facilitate CD1d tetramer staining, glycolipid-loaded CD1d tetramers were formed. Biotinylated mouse sCD1d molecules (in PBS) were mixed with PBS-57 or KRN7000 at a molar ratio of 1:3 (protein:lipid) and incubated overnight at room temperature. The following day, 80 μg of streptavidin-PE (Pharmagen) was added to 200 μg of the CD1-glycolipid mix and incubated at room temperature for 4 hours. Tetramers were stored at 4° C. until use.
Single cell suspensions of thymocytes and splenocytes were isolated from C57BL/6J mice (Jackson Laboratories, Bar Harbor, Me.) as known in the art. The TCR repertoire of the NKT cells was limited with an invariable Vα subunit (Vα14 in mice) and varied Vβ subunits. 10^6 cells were incubated with 200 μL staining media (2% BSA, 1% NaN3, 10 mM EDTA in PBS) with 2.4G2 (1:100; ATCC, Manassas, Va.) and Neutravidin (5 μg/200 μl; Molecular Probes, Eugene, Oreg.) for 20 minutes on ice. […] Cells were washed twice in staining media, fixed with 1% paraformaldehyde in PBS and analyzed by flow cytometry.

[4] = tested on: NKT cell hybridomas; test: Binding of PBS-57 loaded CD1d tetramers to NKT cell hybridomas expressing different Vβ; type: cell-based; conditions: hybridomas with different Vβ TCR, 37° C. 4 hours, FIG. 4
Protocol: The TCR expressed on NKT cells are limited to a invariant Vα subunit, and a variable Vβ subunit that respond to glycolipid presentation by CD1d. To determine if PBS-57 loaded tetramers were Vβ subunit specific in their ability to bind, NKT cell hybridomas expressing different Vβ were tested for their ability to bind PBS-57 loaded CD1d tetramers.
For staining of NKT cell hybridomas, soluble CD1d (sCD1d) tetramers were loaded with PBS-57 or KRN7000 by the following procedure. Stock reagents of the following were prepared: sCD1d (1 mg/ml in phosphate buffer saline (PBS)); PBS-57 (1 mg/ml in DMSO); Tween 20 (0.5% in PBS); and streptavidin-APC (80 μg/mL in PBS). 10 μL sCD1d stock, 1 μL PBS-57 stock, and 10 μL Tween 20 stock were mixed, and 79 μL PBS was added to bring the volume up to 100 μL. […] To separate unbound glycolipid, the mixture was applied to a Microcon YM30 filter (Millipore) that has been previously wetted with PBS (400 μL). The loaded membrane was centrifuged until only ˜10 μL of solution remained. The volume was then increased to 100 μL by addition of PBS. The solution was agitated to aid in freeing the protein from the filter. The Microcon unit was inverted into a fresh Eppendorf tube and the contents were centrifuged into the tube. A 10 μL aliquot of the solution was removed and the streptavidin-APC solution (5 μL) was added. […]

[5] = tested on: NKT cells; test: CD1d tetramer staining of NKT cells in human blood samples; type: cell-based; conditions: PBS-57 loaded mouse and human CD1d tetramers
Text: (§1) To test whether PBS-57 could facilitate NKT cell binding in blood samples of both human and non-human primates, mouse and human CD1d tetramers were loaded with PBS-57 as described in Example 2. A majority of the human blood samples contained sufficient NKT cells (>0.08% of CD3-positive cells) to observe staining (14 out of 17 samples), while some samples may have contained too few NKT cells to allow detection of staining (Lee et al., 2002).

[6] = tested on: NKT cells; test: CD1d tetramer staining of NKT cells in chimpanzee blood samples; type: cell-based; conditions: PBS-57 loaded CD1d tetramers
Text: as §1

[7] = tested on: NKT cells; test: CD1d tetramer staining of NKT cells in rhesus macaque blood samples; type: cell-based; conditions: rhesus macaques, 12 samples
Text: as §1

[8] = tested on: NKT cells; test: CD1d tetramer staining of NKT cells in pigtail macaque blood samples; type: cell-based; conditions: pigtail macaques
Text: as §1

[9] = tested on: NKT cells; test: CD1d tetramer staining of NKT cells in sooty mangabey blood samples; type: cell-based; conditions: sooty mangabeys
Text: as §1

[10] = tested on: NKT cells; test: Cytokine release in vivo: serum INF-γ after intravenous injection; design: species or system mouse
Protocol: To examine if PBS-57 elicited an immune response in vivo, the ability of PBS-57 and KRN7000 to elicit an increase in cytokine levels in a mouse was assayed. 1 mg/ml stock solutions of PBS-57 and KRN7000 in DMSO were prepared. The PBS-57 and KRN7000 solutions were diluted with PBS to 1, 100, 10^4, and 10^6 pg/mL. 100 μL of each solution was injected intravenously into 6 week-old B6 mice. Serum samples were isolated from the mice at 24 hours, and the concentration of INF-γ was assayed by ELISA (BD Pharmingen).

solubility [1]	solubility ([1]; molar value printed in parentheses)	Compound	solubility (in words) [1]	concentration at which cytokine responses plateau ([2]; 48 hours)	staining of mouse and human NKT cells (summary) [3]	effect of Vβ subunit variation on binding of loaded CD1d tetramers [4]	blood samples with observable NKT cell staining [5]	blood samples with significant NKT cell staining [6]	share of blood samples with significant NKT cell staining [7]	NKT cell staining in blood samples [8]	NKT cell staining in blood samples [9]	Th1 and Th2 cytokine secretion ([2]; B6 splenocytes, 48 hours)	NKT cell stimulation in vitro relative to KRN7000 ([2]; summary statement, in vitro)	serum INF-γ concentration relative to KRN7000 ([10]; B6 mice, intravenous, 100 μL of 1 to 10^6 pg/mL, serum at 24 hours, FIG. 7)	NKT cell stimulation in vivo relative to KRN7000 ([10]; summary statement, in vivo)
< 5 mg/mL	–	CCCCCCCCCCCCCCCCCCCCCCCCCC(=O)N[C@@H](CO[C@H]1O[C@H](CO)[C@H](O)[C@H](O)[C@H]1O)[C@H](O)[C@H](O)CCCCCCCCCCCCCC [KRN7000, reference compound]	relatively poor solubility in either aqueous or organic solvents	~1000 pg/mL	–	–	–	–	–	–	–	–	–	–	–
20 mg/mL	22.4 mM	CCCCCCCCC=CCCCCCCCCCCCCCC(=O)N[C@@H](OC1OC(CNC(C)=O)C(O)C(O)C1O)C(O)[C@H](O)CCCCCCCCCCCCCC (stereo partly drawn) [PBS-57]	relatively high solubility	approximately 100 pg/mL	as well as KRN7000	did not affect the binding	14 out of 17	6 out of 10	one quarter	No staining	No staining	able to induce both Th1 and Th2 cytokine secretion	stimulates NKT cells more effectively than KRN7000	equal to or greater than KRN7000	stimulates NKT cells more effectively than KRN7000

Source: patent US8765692B2, “Modified-galactosyl ceramides for staining and stimulating natural killer T cells” (The Scripps Research Institute, priority 2006, dated 2014)
